Where “and” joins values, the source holds several entries; their conditions need not be identical. Equal entries are not always repeated.
Tests used:
[1] = Molar enthalpy of transition or fusion; conditions: Crystal; DSC
[2] = for Triple point temperature: DSC

c1ccc2nc3ccccc3cc2c1 [acridine]
Conditions	Molar enthalpy of transition or fusion [kcal/mol]
[1]	4.9

[2]
Conditions	vapor or sublimation pressure
292.1 K, Crystal, Calculated from knudsen effusion weight loss	4e-06 kPa
293 K, Crystal, Calculated from knudsen effusion weight loss	4.7e-06 kPa
295.2 K, Crystal, Calculated from knudsen effusion weight loss	6.3e-06 kPa
296.1 K, Crystal, Calculated from knudsen effusion weight loss	6.7e-06 kPa
298.4 K, Crystal, Calculated from knudsen effusion weight loss	9.6e-06 kPa
300 K, Crystal, Calculated from knudsen effusion weight loss	1.2e-05 kPa
301.3 K, Crystal, Calculated from knudsen effusion weight loss	1.4e-05 kPa
303 K, Crystal, Calculated from knudsen effusion weight loss	1.8e-05 kPa
304.2 K, Crystal, Calculated from knudsen effusion weight loss	2e-05 kPa
305.9 K, Crystal, Calculated from knudsen effusion weight loss	2.6e-05 kPa
306.2 K, Crystal, Calculated from knudsen effusion weight loss	2.6e-05 kPa
308.1 K, Crystal, Calculated from knudsen effusion weight loss	3.3e-05 kPa
308.9 K, Crystal, Calculated from knudsen effusion weight loss	3.7e-05 kPa
311.1 K, Crystal, Calculated from knudsen effusion weight loss	4.7e-05 kPa
311.9 K, Crystal, Calculated from knudsen effusion weight loss	5.3e-05 kPa
314.1 K, Crystal, Calculated from knudsen effusion weight loss	6.8e-05 kPa
314.8 K, Crystal, Calculated from knudsen effusion weight loss	7.1e-05 kPa
315.8 K, Crystal, Calculated from knudsen effusion weight loss	8.4e-05 kPa
317 K, Crystal, Calculated from knudsen effusion weight loss	9.3e-05 kPa
317.8 K, Crystal, Calculated from knudsen effusion weight loss	9.8e-05 kPa
318.1 K, Crystal, Calculated from knudsen effusion weight loss	9.7e-05 kPa
318.8 K, Crystal, Calculated from knudsen effusion weight loss	0.000119 kPa
319.4 K, Crystal, Calculated from knudsen effusion weight loss	0.00011 kPa
320 K, Crystal, Calculated from knudsen effusion weight loss	0.000134 kPa
320.8 K, Crystal, Calculated from knudsen effusion weight loss	0.000138 kPa and 0.000148 kPa
321.1 K, Crystal, Calculated from knudsen effusion weight loss	0.00014 kPa
322.3 K, Crystal, Calculated from knudsen effusion weight loss	0.00015 kPa
322.9 K, Crystal, Calculated from knudsen effusion weight loss	0.000179 kPa
324 K, Crystal, Calculated from knudsen effusion weight loss	0.00019 kPa
325.1 K, Crystal, Calculated from knudsen effusion weight loss	0.00021 kPa
327 K, Crystal, Calculated from knudsen effusion weight loss	0.00027 kPa
328.1 K, Crystal, Calculated from knudsen effusion weight loss	0.0003 kPa
329.9 K, Crystal, Calculated from knudsen effusion weight loss	0.00036 kPa
331.1 K, Crystal, Calculated from knudsen effusion weight loss	0.0004 kPa
332.9 K, Crystal, Calculated from knudsen effusion weight loss	0.00048 kPa
334 K, Crystal, Calculated from knudsen effusion weight loss	0.00057 kPa
335.9 K, Crystal, Calculated from knudsen effusion weight loss	0.0007 kPa
337.1 K, Crystal, Calculated from knudsen effusion weight loss	0.00075 kPa
338.9 K, Crystal, Calculated from knudsen effusion weight loss	0.00091 kPa
340.2 K, Crystal, Calculated from knudsen effusion weight loss	0.00106 kPa
341.7 K, Crystal, Calculated from knudsen effusion weight loss	0.00122 kPa
343 K, Crystal, Calculated from knudsen effusion weight loss	0.00145 kPa
344.6 K, Crystal, Calculated from knudsen effusion weight loss	0.00162 kPa
346.1 K, Crystal, Calculated from knudsen effusion weight loss	0.0019 kPa
347.6 K, Crystal, Calculated from knudsen effusion weight loss	0.0022 kPa
348.8 K, Crystal, Calculated from knudsen effusion weight loss	0.0025 kPa
388.2 K, Liquid, Rate of evaporation	0.067 kPa
391.2 K, Liquid, Rate of evaporation	0.08 kPa
395.2 K, Liquid, Rate of evaporation	0.099 kPa
399.1 K, Liquid, Rate of evaporation	0.119 kPa
402.1 K, Liquid, Rate of evaporation	0.147 kPa
405 K, Liquid, Rate of evaporation	0.17 kPa
408 K, Liquid, Rate of evaporation	0.197 kPa
412 K, Liquid, Rate of evaporation	0.241 kPa
416 K, Liquid, Rate of evaporation	0.292 kPa
419.9 K, Liquid, Rate of evaporation	0.338 kPa
422.9 K, Liquid, Rate of evaporation	0.396 kPa
425.9 K, Liquid, Rate of evaporation	0.443 kPa
428.9 K, Liquid, Rate of evaporation	0.51 kPa
431.8 K, Liquid, Rate of evaporation	0.601 kPa

Conditions	Triple point temperature [K]
[2], Crystal	382

c1ccc2c(c1)cnc1ccccc12 [phenanthridine]
Conditions	Molar enthalpy of transition or fusion [kcal/mol]
[1]	5.93

[2]
Conditions	vapor or sublimation pressure
318.6 K, Crystal, Torsion effusion method	3.8e-05 kPa
322.1 K, Crystal, Torsion effusion method	5.7e-05 kPa
323.2 K, Crystal, Torsion effusion method	7.6e-05 kPa
324 K, Crystal, Torsion effusion method	7.6e-05 kPa
325 K, Crystal, Torsion effusion method	8.5e-05 kPa
325.2 K, Crystal, Torsion effusion method	9.4e-05 kPa
325.9 K, Crystal, Torsion effusion method	0.000104 kPa
327 K, Crystal, Torsion effusion method	0.000104 kPa
327.6 K, Crystal, Torsion effusion method	0.000124 kPa
329.1 K, Crystal, Torsion effusion method	0.000133 kPa
329.3 K, Crystal, Torsion effusion method	0.000151 kPa
330 K, Crystal, Torsion effusion method	0.000142 kPa
330.9 K, Crystal, Torsion effusion method	0.000181 kPa
331.9 K, Crystal, Torsion effusion method	0.00019 kPa
332.6 K, Crystal, Torsion effusion method	0.000208 kPa
332.9 K, Crystal, Torsion effusion method	0.000228 kPa
333.9 K, Crystal, Torsion effusion method	0.00025 kPa
334.1 K, Crystal, Torsion effusion method	0.00023 kPa
334.7 K, Crystal, Torsion effusion method	0.00025 kPa
335 K, Crystal, Torsion effusion method	0.00026 kPa
335.7 K, Crystal, Torsion effusion method	0.0003 kPa
335.9 K, Crystal, Torsion effusion method	0.00028 kPa
337 K, Crystal, Torsion effusion method	0.00034 kPa
337.9 K, Crystal, Torsion effusion method	0.00038 kPa
338.4 K, Crystal, Torsion effusion method	0.00036 kPa
339.8 K, Crystal, Torsion effusion method	0.00045 kPa
340 K, Crystal, Torsion effusion method	0.00044 kPa and 0.00047 kPa
341.4 K, Crystal, Torsion effusion method	0.00053 kPa
341.5 K, Crystal, Torsion effusion method	0.00055 kPa
342.2 K, Crystal, Torsion effusion method	0.00061 kPa
342.9 K, Crystal, Torsion effusion method	0.00061 kPa
343.2 K, Crystal, Torsion effusion method	0.00072 kPa
345.3 K, Crystal, Torsion effusion method	0.00085 kPa
345.5 K, Crystal, Torsion effusion method	0.00079 kPa
347.1 K, Crystal, Torsion effusion method	0.001 kPa
347.3 K, Crystal, Torsion effusion method	0.00093 kPa
348.2 K, Crystal, Torsion effusion method	0.00115 kPa
349.4 K, Crystal, Torsion effusion method	0.00128 kPa
388.1 K, Liquid, Rate of evaporation	0.038 kPa
393.1 K, Liquid, Rate of evaporation	0.05 kPa
398.1 K, Liquid, Rate of evaporation	0.065 kPa
403.1 K, Liquid, Rate of evaporation	0.086 kPa
408.1 K, Liquid, Rate of evaporation	0.113 kPa
413.1 K, Liquid, Rate of evaporation	0.145 kPa
418.1 K, Liquid, Rate of evaporation	0.187 kPa
423.1 K, Liquid, Rate of evaporation	0.24 kPa
428.1 K, Liquid, Rate of evaporation	0.302 kPa
433.1 K, Liquid, Rate of evaporation	0.369 kPa
438.1 K, Liquid, Rate of evaporation	0.469 kPa
443.1 K, Liquid, Rate of evaporation	0.567 kPa
448.1 K, Liquid, Rate of evaporation	0.728 kPa
453.1 K, Liquid, Rate of evaporation	0.854 kPa

Conditions	Triple point temperature [K]
[2], Crystal	379.1

c1ccc2nc3ccccc3nc2c1 [phenazine]
Conditions	Molar enthalpy of transition or fusion [kcal/mol]
[1]	4.61

[2]
Conditions	vapor or sublimation pressure
291.8 K, Crystal, Calculated from knudsen effusion weight loss	9.4e-07 kPa
293.5 K, Crystal, Calculated from knudsen effusion weight loss	1.3e-06 kPa
296.3 K, Crystal, Calculated from knudsen effusion weight loss	1.6e-06 kPa
300.3 K, Crystal, Calculated from knudsen effusion weight loss	2.9e-06 kPa
303.5 K, Crystal, Calculated from knudsen effusion weight loss	4.7e-06 kPa
306.3 K, Crystal, Calculated from knudsen effusion weight loss	6.1e-06 kPa
310.3 K, Crystal, Calculated from knudsen effusion weight loss	1.1e-05 kPa
313.3 K, Crystal, Calculated from knudsen effusion weight loss	1.81e-05 kPa
316.2 K, Crystal, Calculated from knudsen effusion weight loss	2.24e-05 kPa and 2.6e-05 kPa
320.1 K, Crystal, Calculated from knudsen effusion weight loss	3.8e-05 kPa and 4.6e-05 kPa
323.1 K, Crystal, Calculated from knudsen effusion weight loss	6.6e-05 kPa
323.6 K, Crystal, Calculated from knudsen effusion weight loss	6.5e-05 kPa
326.1 K, Crystal, Calculated from knudsen effusion weight loss	8.9e-05 kPa
330 K, Crystal, Calculated from knudsen effusion weight loss	0.00015 kPa
332.9 K, Crystal, Calculated from knudsen effusion weight loss	0.000196 kPa
335.9 K, Crystal, Calculated from knudsen effusion weight loss	0.000264 kPa
339.8 K, Crystal, Calculated from knudsen effusion weight loss	0.0004 kPa
342.8 K, Crystal, Calculated from knudsen effusion weight loss	0.00056 kPa
450.3 K, Liquid, Rate of evaporation	2.018 kPa
451.4 K, Liquid, Rate of evaporation	2.101 kPa
452.5 K, Liquid, Rate of evaporation	2.186 kPa
454.8 K, Liquid, Rate of evaporation	2.441 kPa
456.7 K, Liquid, Rate of evaporation	2.618 kPa
458.9 K, Liquid, Rate of evaporation	2.836 kPa
460.1 K, Liquid, Rate of evaporation	3.041 kPa
462.6 K, Liquid, Rate of evaporation	3.328 kPa
464.2 K, Liquid, Rate of evaporation	3.533 kPa
466.7 K, Liquid, Rate of evaporation	3.944 kPa
469.1 K, Liquid, Rate of evaporation	4.316 kPa

Conditions	Triple point temperature [K]
[2], Crystal	446.4

Reference: the NIST ThermoML archive (doi:10.1016/j.tca.2016.05.001)
